Experiment: Aggregation and precipitation of polyglycerin fatty acid ester on storage with oxoacid or organic solvent (Example 17)
Type: physicochemical
Set-up: key: 1: equivalent aggregation and precipitation to those of the reference were observed; 2: the aggregation and precipitation were approximately ¾ of those of the reference; 3: the aggregation and precipitation were approximately ½ of those of the reference; 4: the aggregation and precipitation were approximately ¼ of those of the reference; 5: no aggregate and precipitate were observed
Settings: cool dark place, two months, visual
Description: A polyglycerin fatty acid ester and phosphoric acid were weighed using an electronic balance and put into a cylindrical plastic container (diameter of […]×height of 77 mm, volume 25 ml) in such a manner that the mixing ratio was 90:10 (mass ratio) (10 mass % of phosphoric acid (approximately 11.1 parts by mass of phosphoric acid per 100 parts by mass of the polyglycerin fatty acid) was added) or 99.9:0.1 (mass ratio) (0.1 mass % of phosphoric acid (approximately 0.1 parts by mass of phosphoric acid per 100 parts by mass of the polyglycerin fatty acid) was added). The total amount was adjusted to 20 ml. Then, the preparation was made uniform by sufficient stirring and mixing. The resultant was left standing in a cool dark place. Two months later, the degree of aggregation and precipitation of the polyglycerin fatty acid ester was visually determined based on the following determination criteria. […] Further, as a reference, a test was conducted by the same method as above using only a polyglycerin fatty acid ester to which no oxoacid or organic solvent was added. Index 1: equivalent aggregation and precipitation to those of the reference were observed. Index 2: the aggregation and precipitation were approximately ¾ of those of the reference.

[1] = adding ratio 0.1 % to polyglycerin fatty acid ester
[2] = adding ratio 10.0 % to polyglycerin fatty acid ester

| SMILES | Result (index): degree of aggregation and precipitation of the polyglycerin fatty acid ester [1] | Result (index): degree of aggregation and precipitation of the polyglycerin fatty acid ester [2] |
| --- | --- | --- |
| CC(=O)O [acetic acid] | 4 | 5 |
| CCO [ethyl alcohol] | 4 | 4 |
| O=P(O)(O)O [phosphoric acid] | 4 | 5 |
| CCCCCC [normal hexane] | 3 | 4 |
| CC(O)C(=O)O (stereo not shown) [lactic acid] | 4 | 5 |

Source: patent US20150313217A1, “CONTROL AGENT FOR PLANT PEST AND/OR PLANT DISEASE” (RIKEN, priority 2012, published 2015)
